Measurements from patent US5030635A, “6-7-dimethoxy-1,2-dihydro-2-arylquinazoline-3-oxides” (Ortho Pharmaceutical Corporation, priority 1990, dated 1991).

How the values were obtained:
[1] = test system: myocardial contractile force; assay: Acute In Vivo Cardiotonic Evaluation (myocardial contractile force); parameters: species or system adult mongrel dogs; conditions: Canis lupus familiaris, iv, i.v. infusion, anesthetized dogs, vs pretreatment control values, read-out: % Increase In Myocardial Contractile force; for change in vivo at 1.87 mg/kg: 1.87 mpk; for change in vivo at 8.75 mg/kg: 8.75 mpk
Protocol: Pharmacological Activity--Acute In Vivo Cardiotonic Evaluation
Using the procedures described by Alousi, A. A. et al., Circ. Res. 45, 666 (1979), adult mongrel dogs were anesthetized with sodium pentobarbital, and artificially respirated. Arterial pressure was recorded via a femoral artery and the pressure pulse was used to trigger a cardiotachometer for heart rate. Left ventricular pressure was measured with a Millar catheter, and dP/dt was derived. Cardiac output was determined by measuring ascending aortic blood flow with an electromagnetic flow probe, and the myocardial contractile force (CF) was measured with a Walton Brodie strain gauge sutured to the right ventricle. Lead II EKG was also recorded.
A standard dose of dopamine or dobutamine was administered in order to assess myocardial responsiveness. The test compounds were then administered by i.v. infusion and the effects on cardiovascular parameters were determined. The dose of each example compound was either 1.87 mg/kg or 8.75 mg/kg as set forth below in Table 1.
The dose related effects of the compound on myocardial contractile force was compared to pretreatment control values, expressed as a % change and rated for activity. Statistical evaluations were made using the appropriate parametric test against a vehicle control.

[2] = test system: ovalbumin-induced bronchoconstriction; assay: Active Lung Anaphylaxis (inhibition of ovalbumin-induced bronchoconstriction); type: in vivo, male Harley guinea pigs; conditions: prior to ovalbumin provocation, actively sensitized guinea pigs, percent inhibition of control
Protocol: Pharmacological Activity--Active Lung Anaphylaxis
Using the procedures described by Ritchie, D. M. et al., Agents and Actions 11, 4 (1981), male Harley guinea pigs were actively sensitized, intraperitoneally, with 16 mg alum and 1 mg ovalbumin. Fourteen days later, these animals were anesthetized and their respiration arrested by the administration of succinylcholine. Respiration was maintained at a constant pressure by a miniature Starling pump. Lung overflow changes in pressure were recorded.
Animals were pretreated with indomethacin (10 mg/kg, i.v.), atropine (0.5 mg/kg, i.v.), methysergide (0.1 mg/kg, i.v.), methapyrilene (2.0 mg/kg, i.v.) and arachidonic acid (5.0 mg/kg, i.v.) prior to ovalbumin challenge. […] Indications of drug efficacy were manifested as a substantial reduction in the degree of bronchoconstriction evidenced by control animals.
Bronchoconstriction induced by ovalbumin was measured as a percent of maximum bronchoconstriction (BC) obtained by clamping off the trachea. Percent inhibition of control was determined as follows: [formula]

SMILES: COc1cc2c(cc1OC)C(C)=[N+]([O-])C(c1cccn1C)N2 (stereo not drawn) [Example 11, 1,2-Dihydro-2-(2-(N-methyl)pyrrolo)-4-methyl-6,7-dimethoxyquinazoline-3-oxide]
- change in vivo at 1.87 mg/kg [1]: 29%

SMILES: COc1cc2c(cc1OC)C(C)=[N+]([O-])C(c1ccc3c(c1)OCO3)N2 (stereo not drawn) [Example 5, 1,2-Dihydro-2-(3,4-methylenedioxyphenyl)-4-methyl-6,7-dimethoxyquinazoline-3-oxide]
- change in vivo at 8.75 mg/kg [1]: 124%

SMILES: COc1cc2c(cc1OC)C(C)=[N+]([O-])C(c1ccc(Cl)cc1)N2 (stereo not drawn) [Example 2, 1,2-Dihydro-2-(4-chlorophenyl)-4-methyl-6,7-dimethoxyquinazoline-3-oxide]
- change in vivo at 8.75 mg/kg [1]: 50%

SMILES: COc1cc2c(cc1OC)C(C)=[N+]([O-])C(c1cccs1)N2 (stereo not drawn) [Example 10, 1,2-Dihydro-2-(2-thienyl)-4-methyl-6,7-dimethoxyquinazoline-3-oxide]
- change in vivo at 8.75 mg/kg [1]: 75%

SMILES: COc1cc2c(cc1OC)C(C)=[N+]([O-])C(c1ccc(C)cc1)N2 (stereo not drawn) [Example 4, 1,2-Dihydro-2-(4-tolyl)-4-methyl-6,7-dimethoxy-quinazoline-3-oxide]
- % Inhibition of Bronchoconstriction at 50 mpk [2]: 71.9%
- change in vivo at 1.87 mg/kg [1]: 42%

SMILES: COc1cc2c(cc1OC)C(C)=[N+]([O-])C(c1ccncc1)N2 (stereo not drawn) [Example 13, 1,2-Dihydro-2-(4-pyridyl)-4-methyl-6,7-dimethoxyquinazoline-3-oxide]
- change in vivo at 8.75 mg/kg [1]: 29%

SMILES: COc1cc2c(cc1OC)C(C)=[N+]([O-])C(c1ccccc1)N2 (stereo not drawn) [Example 1, 1,2-Dihydro-2-phenyl-4-methyl-6,7-dimethoxy-quinazoline-3-oxide]
- % Inhibition of Bronchoconstriction at 50 mpk [2]: 60.9%
- change in vivo at 8.75 mg/kg [1]: 157%

SMILES: COc1cc2c(cc1OC)C(C)=[N+]([O-])C(c1ccco1)N2 (stereo not drawn) [Example 9, 1,2-Dihydro-2-(2-furyl)-4-methyl-6,7-dimethoxyquinazoline-3-oxide]
- change in vivo at 8.75 mg/kg [1]: 123%

SMILES: COc1cc2c(cc1OC)C(C)=[N+]([O-])C(c1c(F)c(F)c(F)c(F)c1F)N2 (stereo not drawn) [Example 8, 1,2-Dihydro-2-pentafluorophenyl-4-methyl-6,7-dimethoxyquinazoline-3-oxide]
- % Inhibition of Bronchoconstriction at 50 mpk [2]: 27.3%
- change in vivo at 1.87 mg/kg [1]: 33%

SMILES: COc1cc2c(cc1OC)C(C)=[N+]([O-])C(c1cccc3c1OCO3)N2 (stereo not drawn) [Example 6, 1,2-Dihydro-2-(2,3-methylenedioxyphenyl)-4-methyl-6,7-dimethoxyquinazoline-3-oxide]
- change in vivo at 8.75 mg/kg [1]: 45%

SMILES: COc1cc2c(cc1OC)C(C)=[N+]([O-])C(c1ccccn1)N2 (stereo not drawn) [Example 12, 1,2-Dihydro-2-(2-pyridyl)-4-methyl-6,7-dimethoxyquinazoline-3-oxide]
- % Inhibition of Bronchoconstriction at 50 mpk [2]: 37.9%
- change in vivo at 8.75 mg/kg [1]: 45%

SMILES: COc1cc2c(cc1OC)C(C)=[N+]([O-])C(c1cccc(OCc3ccccc3)c1)N2 (stereo not drawn) [Example 7, 1,2-Dihydro-2-(3-benzyloxyphenyl)-4-methyl-6,7-dimethoxyquinazoline-3-oxide]
- % Inhibition of Bronchoconstriction at 50 mpk [2]: 49.5%
- change in vivo at 8.75 mg/kg [1]: 20%

SMILES: COc1ccc(C2Nc3cc(OC)c(OC)cc3C(C)=[N+]2[O-])cc1 (stereo not drawn) [Example 3, 1,2-Dyhydro-2-(4-methoxyphenyl)-4-methyl-6,7-dimethoxyquinazoline-3-oxide]
- change in vivo at 1.87 mg/kg [1]: 29%
